Assay [1] concerns the target T1, wild-type Androgen Receptor (AR-wt) (Homo sapiens (Human), UniProt P10275). Kind of assay: LNCaP-AR-wt AG reporter assay (agonist mode). Type of assay: cell-based. To be noted: for EC50: agonist mode, pEC50 = −Log10(EC50 in Molar), read-out: LNCaP-AR-wt AG pEC50 (converted); for Emax: maximum % stimulation (agonist response) over the tested concentration range, read-out: LNCaP-AR-wt AG MAX % Stim. In general terms: Reporter assays use an easily measured gene product as a stand-in for the process of interest.

For assay [2], the target named is T2, F876L mutant Androgen Receptor (AR-F876L) (Homo sapiens (Human), UniProt P10275, F877L). Kind of assay: LNCaP-AR-F876L AG reporter assay (agonist mode). Type of assay: cell-based. To be noted: for EC50: agonist mode, pEC50 = −Log10(EC50 in Molar), read-out: LNCaP-AR-F876L AG pEC50 (converted); for Emax: maximum % stimulation (agonist response) over the tested concentration range, read-out: LNCaP-AR-F876L AG MAX % Stim.

The subject of another assay is rGABA-gated Cl− channel. Kind of assay: GABA-Gated Cl Channel Antagonist Radioligand Binding Assay. The conditions noted are these: 10 μM single point, [35S]-TBPS, cerebral cortex membrane homogenates. Details: species or system rat. In short, it runs like this: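 Rat cerebral cortex membranes (120 μg protein) incubated 120 min at 22° C with 3 nM […] in 50 mM Na2HPO4/KH2PO4 pH 7.4, 500 mM NaCl; nonspecific binding defined with 20 μM picrotoxinin. Bound label counted after filtration; values are percent inhibition of specific binding at 10 μM compound.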

The target in assay [3] is T1, wild-type Androgen Receptor (AR-wt). The assay is described as follows: LNCaP-AR-wt ANT reporter assay (antagonist mode). Type of assay: cell-based. To be noted: for IC50: read-out: LNCaP-AR-wt ANT pIC50 (converted); for Emax: maximum % inhibition of R1881 control response over the tested concentration range, read-out: LNCaP-AR-wt ANT MAX % Inh.
The target of assay [4] is T2, F876L mutant Androgen Receptor (AR-F876L). Kind of assay: LNCaP-AR-F876L ANT reporter assay (antagonist mode). Type of assay: cell-based. The conditions noted are these: for IC50: read-out: LNCaP-AR-F876L ANT pIC50 (converted); for Emax: maximum % inhibition of R1881 control response over the tested concentration range, read-out: LNCaP-AR-F876L ANT MAX % Inh.
Where [5] appears, read: antagonist mode, pIC50 = −Log10(IC50 in Molar).

T2 sequence (P10275 whole entry F877L): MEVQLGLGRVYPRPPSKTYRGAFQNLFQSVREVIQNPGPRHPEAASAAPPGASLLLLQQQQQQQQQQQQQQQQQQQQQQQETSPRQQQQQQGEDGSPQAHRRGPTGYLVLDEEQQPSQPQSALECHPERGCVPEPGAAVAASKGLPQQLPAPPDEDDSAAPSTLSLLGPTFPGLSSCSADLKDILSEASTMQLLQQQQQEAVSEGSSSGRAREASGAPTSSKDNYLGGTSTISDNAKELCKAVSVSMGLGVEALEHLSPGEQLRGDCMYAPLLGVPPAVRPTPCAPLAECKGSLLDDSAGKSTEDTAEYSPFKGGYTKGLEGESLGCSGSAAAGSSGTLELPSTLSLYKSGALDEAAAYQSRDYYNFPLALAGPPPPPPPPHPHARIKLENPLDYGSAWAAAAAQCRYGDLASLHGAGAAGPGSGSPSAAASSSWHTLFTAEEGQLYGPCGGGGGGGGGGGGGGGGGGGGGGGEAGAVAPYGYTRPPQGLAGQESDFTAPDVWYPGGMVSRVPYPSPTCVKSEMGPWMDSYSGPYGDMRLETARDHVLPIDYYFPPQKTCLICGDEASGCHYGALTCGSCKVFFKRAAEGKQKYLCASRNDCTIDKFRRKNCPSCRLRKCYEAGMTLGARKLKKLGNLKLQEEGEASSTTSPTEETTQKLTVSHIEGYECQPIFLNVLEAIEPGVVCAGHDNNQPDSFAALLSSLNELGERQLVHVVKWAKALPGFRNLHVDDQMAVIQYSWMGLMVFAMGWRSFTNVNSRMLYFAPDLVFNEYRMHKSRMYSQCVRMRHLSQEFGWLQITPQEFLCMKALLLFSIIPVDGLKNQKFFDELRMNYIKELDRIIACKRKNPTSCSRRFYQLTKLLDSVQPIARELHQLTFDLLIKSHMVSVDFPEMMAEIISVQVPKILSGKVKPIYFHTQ
T1 sequence (P10275 whole entry): as the sequence (P10275 whole entry F877L) above, with L877F counted along it

As to `N#Cc1ncc(N2C(=O)C3(CCC3)N(c3ccc(OC4CC5(CCN5)C4)cc3)C2=S)cc1C(F)(F)F` (stereo not drawn) [Cpd 148, 5-[8-[4-(3-azaspiro[3.3]heptan-6-yloxy)phenyl]-5-oxo-7-thioxo-6,8-diazaspiro[3.4]octan-6-yl]-3-(trifluoromethyl)pyridine-2-carbonitrile], the EC50 in assay [1] and in assay [2] was more than 15.1 µM in each case. Further, the Emax is 0.1% in assay [1], 0.6% in assay [2], 101% in assay [3] and 101% in assay [4]. Moreover, in the assay on rGABA-gated Cl− channel, the “rGABA-gated Cl− channel % inh @10 μM” value is given as 77.3%. In addition, the IC50 in assay [3] (setting [5]) is 0.302 µM; in assay [4] (setting [5]), 0.126 µM.
Turning to `CN1CCC(Oc2ccc(N3C(=S)N(c4cnc(C#N)c(C(F)F)c4)C(=O)C34CCC4)cc2)CC1` [Cpd 41, 3-(difluoromethyl)-5-[8-[4-[(1-methyl-4-piperidyl)oxy]phenyl]-5-oxo-7-thioxo-6,8-diazaspiro[3,4]octan-6-yl]pyridine-2-carbonitrile], the EC50 in assay [1] and in assay [2] was more than 15.1 µM throughout. The Emax in assay [1] was 0.1%; in assay [2], 0.1%; in assay [3], 99.3%; in assay [4], 99.9%. For the same compound, the “rGABA-gated Cl− channel % inh @10 μM” value in the assay with rGABA-gated Cl− channel came to 20.4%. Also, the IC50 in assay [3] (setting [5]) is 0.427 µM; in assay [4] (setting [5]), 0.257 µM.
Regarding `COCCN1CCC(Oc2ccc(N3C(=S)N(c4cnc(C#N)c(C(F)(F)F)c4)C(=O)C34CCC4)cc2)CC1` [Cpd 38, 5-[8-[4-[[1-(2-methoxyethyl)-4-piperidyl]oxy]phenyl]-5-oxo-7-thioxo-6,8-diazaspiro[3.4]octan-6-yl]-3-(trifluoromethyl)pyridine-2-carbonitrile], the EC50 in assay [1] and in assay [2] was more than 15.1 µM throughout. For the same compound, the Emax in assay [1] came out at 0%; in assay [2], 0.3%; in assay [3], 101%; in assay [4], 99.9%. Also, in the assay with rGABA-gated Cl− channel, the “rGABA-gated Cl− channel % inh @10 μM” value is on record as 69.2%. In addition, the IC50 was 0.708 µM in assay [3] (setting [5]) and 0.324 µM in assay [4] (setting [5]).
As to `N#Cc1ncc(N2C(=O)C3(CCC3)N(c3ccc(N4CCOCC4)cc3)C2=S)cc1C(F)(F)F` [Cpd 69, 5-[8-(4-Morpholinophenyl)-5-oxo-7-thioxo-6,8-diazaspiro[3.4]octan-6-yl]-3-(trifluoromethyl)pyridine-2-carbonitrile], the EC50 in assay [1] and in assay [2] was more than 15.1 µM each time. Moreover, the Emax was 0.2% in assay [1], 0.1% in assay [2], 101% in assay [3] and 98.9% in assay [4]. In addition, the “rGABA-gated Cl− channel % inh @10 μM” value in the assay with rGABA-gated Cl− channel came out at 77.5%. Besides, the figures for the IC50 in assay [3] (setting [5]) and in assay [4] (setting [5]) were 0.115 µM and 0.0692 µM, respectively.
Consider `COCCn1cc2cc(N3C(=S)N(c4cnc(C#N)c(C(F)(F)F)c4)C(=O)C34CCC4)ccc2n1` [Cpd 172, 5-[8-[2-(2-methoxyethyl)indazol-5-yl]-5-oxo-7-thioxo-6,8-diazaspiro[3.4]octan-6-yl]-3-(trifluoromethyl)pyridine-2-carbonitrile], for which the EC50 in assay [1] and in assay [2] was more than 15.1 µM each time. Further, the Emax in assay [1] was 0.2%; in assay [2] it was -0.1%; in assay [3], 99.2%; in assay [4], 100%. Besides, the “rGABA-gated Cl− channel % inh @10 μM” value with rGABA-gated Cl− channel stood at 94.9%. Further, the IC50 in assay [3] (setting [5]) is 0.339 µM; in assay [4] (setting [5]) it was 0.174 µM.
As to `COCCN1CCC(Oc2ccc(N3C(=S)N(c4cnc(C#N)c(C)c4)C(=O)C34CCC4)cc2)CC1` [Cpd 37, 5-[8-[4-[[1-(2-methoxyethyl)-4-piperidyl]oxy]phenyl]-5-oxo-7-thioxo-6,8-diazaspiro[3.4]octan-6-yl]-3-methyl-pyridine-2-carbonitrile], the EC50 in assay [1] and in assay [2] was more than 15.1 µM each time. Also, the Emax was determined as 0.1% in assay [1], 0% in assay [2], 99.8% in assay [3] and 99.5% in assay [4]. In addition, in the assay with rGABA-gated Cl− channel, the “rGABA-gated Cl− channel % inh @10 μM” value was 18.8%. For the same compound, the IC50 in assay [3] (setting [5]) was 1.26 µM; in assay [4] (setting [5]), 0.407 µM.
On to `N#CCN1CCC(Oc2ccc(N3C(=S)N(c4cnc(C#N)c(C(F)(F)F)c4)C(=O)C34CCC4)cc2)CC1` [Cpd 39, 5-[8-[4-[[1-(cyanomethyl)-4-piperidyl]oxy]phenyl]-5-oxo-7-thioxo-6,8-diazaspiro[3.4]octan-6-yl]-3-(trifluoromethyl)pyridine-2-carbonitrile], for which the EC50 in assay [1] and in assay [2] was more than 15.1 µM in each case. Further, the Emax was 0.9% in assay [1], -0.1% in assay [2], 100% in assay [3] and 101% in assay [4]. Further, the “rGABA-gated Cl− channel % inh @10 μM” value in the assay on rGABA-gated Cl− channel was determined as 86.2%. The IC50 is 0.676 µM in assay [3] (setting [5]) and 0.245 µM in assay [4] (setting [5]).
With `Cc1cc(N2C(=O)C3(CCC3)N(c3ccc(OC4CCN(CC(F)(F)F)CC4)nc3)C2=S)cnc1C#N` [Cpd 62, 3-methyl-5-[5-oxo-7-thioxo-8-[6-[[1-(2,2,2-trifluoroethyl)-4-piperidyl]oxy]-3-pyridyl]-6,8-diazaspiro[3.4]octan-6-yl]pyridine-2-carbonitrile], the EC50 in assay [1] and in assay [2] was more than 15.1 µM in each case. Also, the Emax stood at 0.5% in assay [1], 0.2% in assay [2], 100% in assay [3] and 98.4% in assay [4]. In the assay with rGABA-gated Cl− channel, the “rGABA-gated Cl− channel % inh @10 μM” value is 61.0%. Also, the values for the IC50 in assay [3] (setting [5]) and in assay [4] (setting [5]) were 0.038 µM and 0.0269 µM, respectively.
Take `COc1cc(N2C(=O)C3(CCC3)N(c3ccc(OC4CCN(C)CC4)cc3)C2=S)cnc1C#N` [Cpd 23, 3-methoxy-5-[8-[4-[(1-methyl-4-piperidyl)oxy]phenyl]-5-oxo-7-thioxo-6,8-diazaspiro[3.4]octan-6-yl]pyridine-2-carbonitrile]: the EC50 in assay [1] and in assay [2] was more than 15.1 µM throughout. Also, the Emax was determined as 0.4% in assay [1], 0.4% in assay [2], 102% in assay [3] and 101% in assay [4]. For the same compound, the “rGABA-gated Cl− channel % inh @10 μM” value in the assay with rGABA-gated Cl− channel is listed as 4.8%. Besides, the “LNCaP-AR-wt ANT pIC50” value in assay [3] (setting [5]) was found to be 6.52. For the same compound, the “LNCaP-AR-F876L ANT pIC50” value in assay [4] (setting [5]) is recorded as 6.67.
For the compound `COCCn1cc2cc(N3C(=S)N(c4cnc(C#N)c(OC)c4)C(=O)C34CCC4)ccc2n1` [Cpd 175, 3-methoxy-5-[8-[2-(2-methoxyethyl)indazol-5-yl]-5-oxo-7-thioxo-6,8-diazaspiro[3.4]octan-6-yl]pyridine-2-carbonitrile], the EC50 in assay [1] and in assay [2] was more than 15.1 µM throughout. The Emax in assay [1] is 0.1%; in assay [2], 0%; in assay [3], 101%; in assay [4], 101%. Besides, the “rGABA-gated Cl− channel % inh @10 μM” value in the assay on rGABA-gated Cl− channel was 25.6%. Further, the IC50 was 0.269 µM in assay [3] (setting [5]) and 0.141 µM in assay [4] (setting [5]).
On to `COCCn1cc2cc(N3C(=S)N(c4cnc(C#N)c(Cl)c4)C(=O)C34CCC4)ccc2n1` [Cpd 169, 3-chloro-5-[8-[2-(2-methoxyethyl)indazol-5-yl]-5-oxo-7-thioxo-6,8-diazaspiro[3.4]octan-6-yl]pyridine-2-carbonitrile], for which the EC50 in assay [1] and in assay [2] was more than 15.1 µM each time. Also, the Emax in assay [1] came to 0.2%; in assay [2] it was 0.2%; in assay [3], 99.6%; in assay [4], 100%. For the same compound, in the assay with rGABA-gated Cl− channel, the “rGABA-gated Cl− channel % inh @10 μM” value worked out at 80.8%. Also, the IC50 is 0.186 µM in assay [3] (setting [5]) and 0.112 µM in assay [4] (setting [5]).
In the case of `Cc1cc(N2C(=O)C3(CCC3)N(c3ccc(OC4CCN(C)CC4)nc3)C2=S)cnc1C#N` [Cpd 2, 3-methyl-5-[8-[6-[(1-methyl-4-piperidyl)oxy]-3-pyridyl]-5-oxo-7-thioxo-6,8-diazaspiro[3.4]octan-6-yl]pyridine-2-carbonitrile], the EC50 in assay [1] and in assay [2] was more than 15.1 µM throughout. The Emax stood at 0.5% in assay [1], 0.2% in assay [2], 101% in assay [3] and 99.9% in assay [4]. For the same compound, the “rGABA-gated Cl− channel % inh @10 μM” value with rGABA-gated Cl− channel is recorded as 1.6%. Moreover, the IC50 in assay [3] (setting [5]) was 0.245 µM; in assay [4] (setting [5]), 0.123 µM.
With `N#Cc1ncc(N2C(=O)C3(CCC3)N(c3ccc4nn(C5CCNCC5)cc4c3)C2=S)cc1C(F)(F)F` [Cpd 115, 5-[5-oxo-8-[2-(4-piperidyl)indazol-5-yl]-7-thioxo-6,8-diazaspiro[3.4]octan-6-yl]-3-(trifluoromethyl)pyridine-2-carbonitrile], the EC50 in assay [1] and in assay [2] was more than 15.1 µM throughout. Besides, the Emax was -0.1% in assay [1], 0.1% in assay [2], 87% in assay [3] and 104% in assay [4]. The “rGABA-gated Cl− channel % inh @10 μM” value in the assay with rGABA-gated Cl− channel was 40.0%. Moreover, the results for the IC50 in assay [3] (setting [5]) and in assay [4] (setting [5]) were 0.575 µM and 0.288 µM, respectively.
